# According to paper PMC11597774, “Investigation of Antimicrobial and Anti-Inflammatory Efficacy of Newly Synthesized Pyrogallol-Coumarin Hybrids: In Vitro and In Silico Studies” (Pharmaceutics, 2024):
# How the values were obtained:
# [1] = molecular target: T1, Soybean lipoxygenase (Type I-B) (Glycine max, UniProt P08170); experiment: In vitro LOX inhibition assay; type: biochemical; conditions: for inhibition at 25 µM / inhibition at 50 µM / inhibition at 100 µM: read-out: Anti-LOX Activity (%); for IC50: sodium linoleate substrate, tris buffer pH 9, read-out: IC50 (µM), in vitro lipoxygenase inhibitory activity
# T1 construct: purchased Merck (KGaA, Darmstadt, Germany)
# T1 sequence (P08170 1-839): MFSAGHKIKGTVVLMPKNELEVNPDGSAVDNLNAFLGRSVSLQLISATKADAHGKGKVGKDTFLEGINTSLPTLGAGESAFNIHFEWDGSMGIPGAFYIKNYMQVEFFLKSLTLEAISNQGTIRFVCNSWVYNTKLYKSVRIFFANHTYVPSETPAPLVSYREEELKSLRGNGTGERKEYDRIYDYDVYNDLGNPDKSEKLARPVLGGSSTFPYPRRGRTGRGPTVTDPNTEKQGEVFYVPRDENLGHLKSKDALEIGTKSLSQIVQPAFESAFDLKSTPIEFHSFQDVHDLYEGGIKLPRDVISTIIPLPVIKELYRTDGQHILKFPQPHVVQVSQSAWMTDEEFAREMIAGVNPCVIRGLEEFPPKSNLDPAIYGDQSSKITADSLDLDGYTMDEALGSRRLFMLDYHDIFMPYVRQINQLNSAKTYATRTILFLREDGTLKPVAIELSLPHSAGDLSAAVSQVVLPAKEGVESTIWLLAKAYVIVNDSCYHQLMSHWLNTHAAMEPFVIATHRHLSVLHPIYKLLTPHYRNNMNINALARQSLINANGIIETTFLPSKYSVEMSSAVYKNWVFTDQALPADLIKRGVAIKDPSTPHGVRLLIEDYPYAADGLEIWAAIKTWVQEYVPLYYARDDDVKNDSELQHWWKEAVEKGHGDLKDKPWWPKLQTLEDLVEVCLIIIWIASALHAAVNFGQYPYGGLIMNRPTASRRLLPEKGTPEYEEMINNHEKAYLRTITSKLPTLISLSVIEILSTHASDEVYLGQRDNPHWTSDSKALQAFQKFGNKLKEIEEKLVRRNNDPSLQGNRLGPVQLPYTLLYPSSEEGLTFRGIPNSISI
# From the text: Soybean lipoxygenase (Type I-B) is a very often used enzyme for the investigation of anti-inflammatory properties of compounds [38]. The LOX inhibition assay measures the rate of oxidation of linoleic acid by lipoxygenase, which results in the formation of a colorless product that can be detected spectrophotometrically. This enzyme catalyzes the conversion of linoleic acid into hydroperoxy fatty acids and results in increased absorbance at 234 nm. The tested compounds dissolved in DMSO were incubated at room temperature with sodium linoleate (3 mM in tris buffer pH = 9) and enzyme solution (5 × 10^3 units/mL in saline). The activity for each tested compound was presented as IC50 value ± standard deviation (SD) of three independent measurements.
# [2] = tested on: C. albicans ATCC 10231; experiment: Microdilution MIC/MMC with resazurin; type: cell-based, Candida albicans
# Method: (§1) The antimicrobial activity of PCH-1 and PCH-2 was tested against 13 microorganisms. The experiment included four standard strains, Staphylococcus aureus ATCC 6538, Bacillus subtilis ATCC 6633, Proteus mirabilis ATCC 12453, and Pseudomonas aeruginosa ATCC 27853; five isolates, Staphylococcus aureus, Escherichia coli, Salmonella enterica, Klebsiella pneumoniae, and Bacillus subtilis; and one probiotic strain Lactobacillus plantarum 299V. Additionally, three fungal strains were tested, including one standard strain, Candida albicans ATCC 10231, and two isolates, Saccharomyces cerevisiae and probiotic strain Saccharomyces boulardii.
# (§2) The bacterial suspensions were prepared using the direct colony method. The turbidity of the initial suspension was adjusted using a densitometer (DEN-1, BioSan, Latvia). When adjusted to the turbidity of the 0.5 McFarland standard, the bacterial suspension contains approximately 10^8 colony-forming units (CFU)/mL, and the yeast suspension contains approximately 10^6 CFU/mL. For the experiment, the initial suspension was further diluted at a 1:100 ratio in a sterile 0.85% saline solution.
# (§3) The antimicrobial activity was assessed by determining the minimum inhibitory concentrations (MICs) and minimum microbicidal concentrations (MMCs) using the microdilution plate method with resazurin (Alfa Aesar GmbH & Co. (KG, Karlsruhe, Germany)). For this, 96-well plates were prepared by adding 100 μL of Mueller Hinton broth (Torlak, Belgrade, Serbia) for bacterial tests and Sabouraud broth (Torlak, Belgrade, Serbia) for yeast into each well. The tested PCH-1 and PCH-2 were dissolved in 10% dimethyl sulfoxide (DMSO) and then diluted into sterile distilled water. A 100 μL sample from the stock solution of the tested compound was then added to the first row of the plate, followed by twofold serial dilutions using a multichannel pipette. This produced a concentration range from 2.69 to 0.0025 µmol/L. The method is described in detail in the reported paper.
# (§4) Each test setup included growth control and sterility control. […] Minimum microbicidal concentrations (MMCs) were determined as described in detail in the reported paper.
# [3] = tested on: S. boulardii; experiment: Microdilution MIC/MMC with resazurin; type: cell-based, Saccharomyces boulardii
# Method: as §1, §2, §3, §4
# [4] = tested on: S. cerevisiae; experiment: Microdilution MIC/MMC with resazurin; type: cell-based, Saccharomyces cerevisiae
# Method: as §1, §2, §3, §4
# [5] = tested on: S. aureus (isolate); experiment: Microdilution MIC/MMC with resazurin; type: cell-based, Staphylococcus aureus
# Method: as §1, §2, §3, §4
# [6] = tested on: E. coli; experiment: Microdilution MIC/MMC with resazurin; type: cell-based, Escherichia coli
# Method: as §1, §2, §3, §4
# [7] = tested on: P. aeruginosa ATCC 27853; experiment: Inhibition of biofilm formation (crystal violet); type: cell-based, Pseudomonas aeruginosa
# Method: (§5) The ability of S. aureus ATCC 6538, P. mirabilis ATCC 12453, and P. aeruginosa ATCC 27853 to form biofilms was assayed as described by O’Toole et al. (2000), with some modifications. Briefly, tissue culture 96-well microtiter plates (Sarstedt, Germany) were prepared by dispensing 100 µL of nutrient broth (i.e., Mueller Hinton broth) into each well. Then, 10 µL of spore suspension (1.0 McFarland for Gram-positive bacteria and 0.5 McFarland for Gram-negative bacteria) was added to each row. To encourage biofilm formation, all plates were incubated at 37 °C for 48 h, after which the content of each well was emptied and washed twice with 200 µL of sterile 0.85% saline to remove non-adherent cells. The biofilms formed were fixed by adding 100 µL of methanol until it evaporated completely, then stained with 0.1% (w/v) crystal violet (Fluka AG, Buchs, Switzerland) and left at room temperature for 20 min. The excess stain was washed away with deionized water, followed by […] of 96% ethanol. The optical densities (ODs) of the stained biofilms were measured with an ELISA plate reader (RT-2100C, Rayto, Shenzhen, China) at 630 nm. Control wells containing only broth were included to verify sterility and prevent nonspecific media binding. To account for background absorbance, OD readings from sterile medium, fixative, and dye were averaged and subtracted from all test measurements. All tests were conducted in duplicate. The tissue culture 96-well microtiter plates (Sarstedt, Germany) were prepared by dispensing 100 µL of nutrient broth (i.e., Mueller Hinton broth) into each well. From the stock solutions of tested PCH-1 and PCH-2 (at a concentration of 5.4 µmol/L), 100 µL was added to the first row of the microtiter plate. Twofold serial dilutions were then performed, followed by the addition of 10 µL of bacterial suspension to each well. The turbidity of the bacterial suspension was 0.5 McFarland for Gram-negative bacteria and 1.0 McFarland for Gram-positive bacteria. The microtiter plates prepared in this way were incubated at 37 °C for 48 h. The remaining steps of the experiment were carried out as outlined below. […] Only broth or broth with tested PCH-1 and PCH-2 served as controls to check sterility and nonspecific binding of media. To compensate for background absorbance, OD readings from sterile medium, extracts, fixative, and dye were averaged and subtracted from all test values. All tests were performed in duplicate.
# [8] = tested on: P. aeruginosa ATCC 27853; experiment: Microdilution MIC/MMC with resazurin; type: cell-based, Pseudomonas aeruginosa
# Method: as §1, §2, §3, §4
# [9] = tested on: B. subtilis ATCC 6633; experiment: Microdilution MIC/MMC with resazurin; type: cell-based, Bacillus subtilis
# Method: as §1, §2, §3, §4
# [10] = tested on: B. subtilis (isolate); experiment: Microdilution MIC/MMC with resazurin; type: cell-based, Bacillus subtilis
# Method: as §1, §2, §3, §4
# [11] = tested on: S. aureus ATCC 25923; experiment: Inhibition of biofilm formation (crystal violet); type: cell-based, Staphylococcus aureus
# [12] = tested on: K. pneumoniae; experiment: Microdilution MIC/MMC with resazurin; type: cell-based, Klebsiella pneumoniae
# Method: as §1, §2, §3, §4
# [13] = tested on: L. plantarum 299V; experiment: Microdilution MIC/MMC with resazurin; type: cell-based, Lactobacillus plantarum
# Method: as §1, §2, §3, §4
# [14] = tested on: P. mirabilis ATCC 12453; experiment: Inhibition of biofilm formation (crystal violet); type: cell-based, Proteus mirabilis
# Method: as §5
# [15] = tested on: P. mirabilis ATCC 12453; experiment: Microdilution MIC/MMC with resazurin; type: cell-based, Proteus mirabilis
# Method: as §1, §2, §3, §4
# [16] = tested on: S. aureus ATCC 25923; experiment: Microdilution MIC/MMC with resazurin; type: cell-based, Staphylococcus aureus
# [17] = tested on: S. enterica; experiment: Microdilution MIC/MMC with resazurin; type: cell-based, Salmonella enterica; conditions: S. enterica
# Method: as §1, §2, §3, §4
structure (smiles),measurement,setting,value
"CC(=O)c1c(O)c2ccccc2oc1=O [3AcHyC, 3-acetyl-4-hydroxycoumarin]",inhibition at 25 µM,[1],26.4 ± 1.3%
same,inhibition at 40 µM,[1],35.8 ± 0.8%
same,inhibition at 50 µM,[1],43.5 ± 3.1%
same,inhibition at 75 µM,[1],63.4 ± 0.4%
same,inhibition at 100 µM,[1],81.2 ± 0.2%
same,IC50,[1],57.9 ± 1.6 µM
"OC(Cn1cncn1)(Cn1cncn1)c1ccc(F)cc1F [Fluconazole, fluconazole, reference compound]",MMC,[2],0.2 mM
same,MIC,"[2]; Candida albicans, ATCC10231",100 µM
same,MMC,[3],0.1 mM
same,MIC,[3]; Saccharomyces cerevisiae,25 µM
same,MMC,[4],0.025 mM
same,MIC,[4]; Saccharomyces cerevisiae,25 µM
"NNC(=O)c1ccc(O)c(O)c1O [H-1, 2,3,4-trihydroxybenzohydrazide]",inhibition at 25 µM,[1],21.6 ± 1.4%
same,inhibition at 40 µM,[1],33.9 ± 0.8%
same,inhibition at 50 µM,[1],37.8 ± 1%
same,inhibition at 75 µM,[1],57.5 ± 1.1%
same,inhibition at 100 µM,[1],73.5 ± 0.6%
same,IC50,[1],65.4 ± 0.6 µM
"NNC(=O)c1cc(O)c(O)c(O)c1 [H-2, 3,4,5-trihydroxybenzohydrazide]",inhibition at 25 µM,[1],32 ± 0.1%
same,inhibition at 40 µM,[1],44.4 ± 1.7%
same,inhibition at 50 µM,[1],56 ± 1.1%
same,inhibition at 75 µM,[1],73.4 ± 0.3%
same,inhibition at 100 µM,[1],91.9 ± 0.2%
same,IC50,[1],46 ± 0.9 µM
"CN(C)[C@@H]1C(O)=C(C(N)=O)C(=O)[C@@]2(O)C(O)=C3C(=O)c4c(O)cccc4[C@@](C)(O)[C@H]3C[C@@H]12 [Tetracycline, reference compound]",MMC,[5],<0.001 mM
same,MIC,[5]; Staphylococcus aureus,< 1 µM
same,MMC,[6],0.01 mM
same,MIC,[6]; Escherichia coli,5 µM
same,BIC90,"[7]; P. aeruginosa ATCC 27853, 48 h",>2.25 mM
same,IC50,"[7]; Pseudomonas aeruginosa, ATCC27853, P. aeruginosa ATCC 27853, 48 h, read-out: BIC50",> 2250 µM
same,MMC,[8],0.14 mM
same,MIC,"[8]; Pseudomonas aeruginosa, ATCC27853",20 µM
same,MMC,[9],0.035 mM
same,MIC,"[9]; Bacillus subtilis, ATCC6633",5 µM
same,MMC,[10],0.005 mM
same,MIC,[10]; Bacillus subtilis,2 µM
same,BIC90,"[11]; S. aureus ATCC 25923, 48 h",>2.25 mM
same,IC50,"[11]; Staphylococcus aureus, ATCC25923, S. aureus ATCC 25923, 48 h, read-out: BIC50",560 µM
same,MMC,[12],0.07 mM
same,MIC,[12]; Klebsiella pneumoniae,9 µM
same,MMC,[13],0.001 mM
same,MIC,[13]; Lactiplantibacillus plantarum,< 1 µM
same,BIC90,"[14]; P. mirabilis ATCC 12453, 48 h",>2.25 mM
same,IC50,"[14]; Proteus mirabilis, ATCC12453, P. mirabilis ATCC 12453, 48 h, read-out: BIC50",1310 µM
same,MMC,[15],0.07 mM
same,MIC,"[15]; Proteus mirabilis, ATCC12453",35 µM
same,MMC,[16],0.005 mM
same,MIC,"[16]; Staphylococcus aureus, ATCC25923",< 1 µM
same,MMC,[17],0.01 mM
